Data as given in patent US11208404B2 (PERENNA PHARMACEUTICALS, INC., priority 2017, dated 2021).
Like-named read-outs stand apart in the source and are kept apart here.

How the values were obtained:
ALCAT1 [1] = molecular target: T1, ALCAT1 (Homo sapiens (Human), UniProt Q6UWP7); experiment: In vitro acyltransferase assay for ALCAT1 inhibitors; format: biochemical; conditions: for IC50: ALCAT1 enzyme activity
Method in brief: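 Membrane fractions from Sf9 cells expressing human ALCAT1 incubated 30 min at room temperature with 100 µM MLCL or LPG and 25 µM [14C]acyl-CoA (or 100 µM NBD-CoA) in 50 mM Tris/HCl pH 7.0.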
Target sequence in this assay (Q6UWP7 whole entry): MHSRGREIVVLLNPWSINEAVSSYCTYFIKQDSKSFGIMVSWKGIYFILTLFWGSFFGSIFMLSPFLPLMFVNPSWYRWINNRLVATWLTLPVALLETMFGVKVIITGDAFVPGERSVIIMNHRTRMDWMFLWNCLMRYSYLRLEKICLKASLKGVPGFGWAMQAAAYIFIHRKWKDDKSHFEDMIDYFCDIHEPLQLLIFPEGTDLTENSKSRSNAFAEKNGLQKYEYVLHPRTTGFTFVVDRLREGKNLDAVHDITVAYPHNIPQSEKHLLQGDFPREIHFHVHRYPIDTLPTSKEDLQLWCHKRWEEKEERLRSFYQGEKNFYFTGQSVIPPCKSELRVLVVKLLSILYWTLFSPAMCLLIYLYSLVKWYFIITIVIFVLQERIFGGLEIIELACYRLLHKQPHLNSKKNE

ALCAT1 [2] = molecular target: T1, ALCAT1; experiment: Cell-based assay for ALCAT inhibitor compounds (H9C2 cells); conditions: H9c2, 3 μM compound; H9C2 vector cell line and H9C2 with stable overexpression of ALCAT1
Protocol: The assay was performed on the H9C2 vector cell line and H9C2 with stable overexpression of ALCAT1. Materials used in the protocol were CoA, LPG, compounds, chloroform, methanol, 0.9% KCl, 6-well-plates, 1.5 mL tubes, DMEM, FBS, P/S and PBS.
Cells were seeded in 6-well-plates, 8×10^5 cells/well, and cultured at 37° C. in 5% CO2 overnight.
Cells were washed once with ice-cold PBS, collected in ice-cold PBS and centrifuged at 5000 rpm for 5 min at 4° C. 200 μL of chloroform: methanol (2:1) was added to the cell pellet, which was vortexed to suspend the cells and incubated at RT for 1 hr.
40 μL of 0.9% KCl was added and the sample was vortexed before centrifugation at 10000 rpm for 5 min at RT. The aqueous phase (upper layer) was discarded and the organic phase (lower layer) was loaded to a TLC plate (10 cm×20 cm), 40 μL/sample.
The plates were developed in chloroform: methanol: water (65:25:4) for about 30 min and scanned using a Typhoon Scanner. The bands intensity was analysed using ImageJ and the inhibition activity of the tested compounds was calculated.
Compound inhibitors for ALCAT1 enzyme were analyzed by an in vitro cell-based assay as detailed above.
Target sequence in this assay (Q6UWP7 whole entry, species assumed): as the sequence (Q6UWP7 whole entry) above

[3] = 1 μM compound, in vitro enzymatic assay
[4] = read-out: IC50 values (upper bounds)
[5] = triplicates, GraphPad, read-out: IC50

| SMILES | inhibition at 1 µM (ALCAT1 [1]; [3]) [%] | IC50 (ALCAT1 [1]; [4]) [nM] | IC50 (ALCAT1 [1]; [5]) [nM] | inhibition at 3 µM (ALCAT1 [2]) [%] | % inh @ 1 μM (ALCAT1 [1]; [3]) [%] |
| --- | --- | --- | --- | --- | --- |
| O=C(Nc1cc(-c2nnc(-c3ccco3)o2)ccc1F)c1cc(F)ccc1OCCF [Compound 312, 5-Fluoro-N-(2-fluoro-5-(5-(furan-2-yl)-1,3,4-oxadiazol-2-yl)phenyl)-2-(2-fluoroethoxy)benzamide] | 98 | < 100 | 33 | 4 | – |
| O=C(Nc1cc(-c2nnc(-c3ccco3)o2)ccc1F)c1ccccc1OCC(F)(F)F [Compound 313, N-(2-Fluoro-5-(5-(furan-2-yl)-1,3,4-oxadiazol-2-yl)phenyl)-2-(2,2,2-trifluoroethoxy)benzamide] | 94 | – | 64 | 19 | – |
| O=C(Nc1cc(-c2nnc(-c3ccco3)o2)ccc1F)c1ccccc1OCC(F)F [Compound 314, 2-(2,2-Difluoroethoxy)-N-(2-fluoro-5-(5-(furan-2-yl)-1,3,4-oxadiazol-2-yl)phenyl)benzamide] | 95 | < 100 | 29 | 36 | – |
| O=C(Nc1cc(-c2nnc(-c3ccco3)o2)ccc1F)c1cc(F)ccc1OCC(F)(F)F [Compound 319, 5-Fluoro-N-(2-fluoro-5-(5-(furan-2-yl)-1,3,4-oxadiazol-2-yl)phenyl)-2-(2,2,2-trifluoroethoxy)benzamide] | 96 | – | 46 | 12 | – |
| O=C(Nc1cc(-c2nnc(-c3ccco3)o2)ccc1F)c1cc(F)ccc1OCC(F)F [Compound 320, 2-(2,2-Difluoroethoxy)-5-fluoro-N-(2-fluoro-5-(5-(furan-2-yl)-1,3,4-oxadiazol-2-yl)phenyl)benzamide] | 96 | < 100 | 34 | 17 | – |
| Cc1ccc(OCC(F)(F)F)c(C(=O)Nc2cc(-c3nnc(-c4ccco4)o3)ccc2F)c1 [Compound 322, N-(2-fluoro-5-(5-(furan-2-yl)-1,3,4-oxadiazol-2-yl)phenyl)-5-methyl-2-(2,2,2-trifluoroethoxy)benzamide] | 94 | – | 61 | 26 | – |
| COc1ccc(C(F)(F)F)cc1C(=O)Nc1cc(-c2nnc(-c3ccco3)o2)ccc1F [Compound 416, N-(2-Fluoro-5-(5-(furan-2-yl)-1,3,4-oxadiazol-2-yl)phenyl)-2-methoxy-5-(trifluoromethyl)benzamide] | 98 | < 100 | 19 | 45 | – |

Further compounds by falling IC50 (ALCAT1 [1]; [5]), results first:

| inhibition at 1 µM (ALCAT1 [1]; [3]) [%] | IC50 (ALCAT1 [1]; [4]) [nM] | IC50 (ALCAT1 [1]; [5]) [nM] | inhibition at 3 µM (ALCAT1 [2]) [%] | % inh @ 1 μM (ALCAT1 [1]; [3]) [%] | SMILES |
| --- | --- | --- | --- | --- | --- |
| 96 | – | 78 | 45 | – | COc1ccc(C(F)(F)F)cc1C(=O)Nc1cc(-c2nnc(-c3ccco3)o2)ccn1 [Compound 396, N-(4-(5-(Furan-2-yl)-1,3,4-oxadiazol-2-yl)pyridin-2-yl)-2-methoxy-5-(trifluoromethyl)benzamide] |
| 90 | – | 72 | 75 | – | CCOc1ccc(CC)cc1C(=O)N(c1cc(-c2nnc(-c3ccco3)o2)ccc1F)P(=O)(O)O [Compound 497, (2-ethoxy-5-ethylbenzoyl) (2-fluoro-5-(5-(furan-2-yl)-1,3,4-oxadiazol-2-yl)phenyl)phosphoramidic acid] |
| 96 | – | 62 | 50 | – | COc1ccc(OC(F)(F)F)cc1C(=O)Nc1cc(-c2nnc(-c3ccco3)o2)ccn1 [Compound 400, N-(4-(5-(Furan-2-yl)-1,3,4-oxadiazol-2-yl)pyridin-2-yl)-2-methoxy-5-(trifluoromethoxy)benzamide] |
| 94 | – | 38 | 75 | 92 | Cc1ccc(OCCF)c(C(=O)Nc2cc(-c3nnc(-c4ccco4)o3)ccc2F)c1 [Compound 321, N-(2-Fluoro-5-(5-(furan-2-yl)-1,3,4-oxadiazol-2-yl)phenyl)-2-(2-fluoroethoxy)-5-methylbenzamide] |
| 98 | – | 38 | 3 | – | CCOc1ccc(CC)cc1C(=O)Nc1cc(-c2nnc(-c3ccco3)o2)ccn1 [Compound 373, 2-Ethoxy-5-ethyl-N-(4-(5-(furan-2-yl)-1,3,4-oxadiazol-2-yl)pyridin-2-yl)benzamide] |
| 96 | < 100 | 26 | 14 | – | Cc1ccc(OCC(F)F)c(C(=O)Nc2cc(-c3nnc(-c4ccco4)o3)ccc2F)c1 [Compound 323, 2-(2,2-Difluoroethoxy)-N-(2-fluoro-5-(5-(furan-2-yl)-1,3,4-oxadiazol-2-yl)phenyl)-5-methylbenzamide] |
| 98 | < 100 | 24 | 36 | – | O=C(Nc1cc(-c2nnc(-c3ccco3)o2)ccc1F)c1cc(Cl)ccc1OCCF [Compound 318, 5-Chloro-N-(2-fluoro-5-(5-(furan-2-yl)-1,3,4-oxadiazol-2-yl)phenyl)-2-(2-fluoroethoxy)benzamide] |
| 96 | < 100 | 19 | 52 | – | O=C(Nc1cc(-c2nnc(-c3ccco3)o2)ccc1F)c1cc(Cl)ccc1OCC(F)F [Compound 317, 5-Chloro-2-(2,2-difluoroethoxy)-N-(2-fluoro-5-(5-(furan-2-yl)-1,3,4-oxadiazol-2-yl)phenyl)benzamide] |
| 98 | < 100 | 19 | 52 | – | COc1ccc(OC(F)(F)F)cc1C(=O)Nc1cc(-c2nnc(-c3ccco3)o2)ccc1F [Compound 405, N-(2-Fluoro-5-(5-(furan-2-yl)-1,3,4-oxadiazol-2-yl)phenyl)-2-methoxy-5-(trifluoromethoxy)benzamide] |
